In US20110002934A1, “USES OF ANTI-CD40 ANTIBODIES” (Novartis AG, priority 2007, published 2011):
Several values for one entry are separate records, joined by “and”; a condition that tells them apart may be missing. Equal entries are not always repeated.

Tests used:
[1] = system: CD40-expressing target cells; assay: Antibody dependent cellular cytotoxicity (ADCC); assay type: cell-based
Description: (§1) The antibody is able to kill CD40-expressing target cells by antibody dependent cellular cytotoxicity (ADCC). The binding affinity of HCD122 for human CD40 is 5×10^−10 M, as determined by the Biacore™ assay.

SU-DHL-4 cells [2] = assay: CD40L-induced resistance to CHOP cytotoxicity (CellTiter-Glo); assay type: cell-based, human; conditions: antibody 10 μg/ml; CD40L 1 μg/ml; 3 days; percentage of viable cells
Protocol: Experiments were performed to elucidate the mechanism by which the H-CHOP combination provides unexpectedly potent anti-tumour efficacy in vivo. SU-DHL-4 cells were cultured in the presence of (i) negative control huIgG1 antibody, (ii) HCD122, (iii) huIgG1 and CD40L or (iv) HCD122 and CD40L. SU-DHL-4 cells were seeded at 30,000 cells/well. The antibodies were all used at 10 μg/ml. Recombinant human soluble CD40L was used at 1 μg/ml with ligand enhancer at 2 μg/ml. All cells were treated with cytoxan at 1 mg/ml, prednisone at 15 μg/ml, doxrubicin at 2.5 ng/ml and vincristin at 1 pg/ml. Cells were cultured for 3 days and the percentage of viable cells determined using CellTiter-Glo.

SU-DHL-4 cells [3] = assay: CD40L-induced aggregation of SU-DHL-4 cells by microscopy; assay type: cell-based, human
SU-DHL-4 cell line = assay: CD40L-induced expression of cell-surface adhesion molecules, SU-DHL-4 cells; assay type: cell-based, human
Protocol: (§2) To further elucidate the mechanism by which the H-CHOP combination results in unexpectedly potent anti-tumour efficacy in vivo, further experiments were performed. The ability of B-cells cells to aggregate and interact with their microenvironment may affect the efficacy of therapeutics. The effects of HCD122 on the expression of adhesion molecules in the RL and SU-DHL-4 cell lines was therefore examined.

RL cell line = assay: CD40L-induced expression of cell-surface adhesion molecules, RL cells; assay type: cell-based, human
Protocol: as §2

[4] = system: B cells from normal human subjects; assay: In vitro proliferation of B cells from normal human subjects; assay type: cell-based
Protocol: B cells (4×10^4 per well) are cultured in 200 μl IMDM supplemented with 10% fetal calf serum in flat bottom 96-well microtiter plates. B cells are stimulated by addition of immobilized anti-(IgM) antibodies (Immunobeads; 5 μg/ml; BioRad, Richmond, Calif.). Where desired, 100 U/ml recombinant IL-2 is added. Varying concentrations of test monoclonal antibodies (mAbs) are added at the onset of the microcultures and proliferation is assessed at day 3 by measurement of the incorporation of (3H)-thymidine after 18 hour pulsing.
as §1

[5] = system: RL diffuse large B-cell lymphoma (DLBCL) xenograft; assay: Anti-tumor activity in RL DLBCL xenograft model; assay type: in vivo; conditions: alone or with CHOP regimen; for Tumor Growth Inhibition (TGI) on Day 25: vs control huIgG
Protocol: The anti-tumor activity of HCD122 was tested in RL DLBCL xenograft models in combination with CHOP in CB17/SCID mice. 10×10^6 RL cells were subcutaneously implanted with equal volume of Matrigel™ in the animals' midline thoracic vertebral region in a 200 μl volume. The antibody administration was initiated when the mean tumor volume was 150-200 mm^3 in size (noted as day 1 in FIG. 1). […] All monoclonal antibodies were administered on a once-a-week schedule, and the length of treatment was 4 weeks. The CHOP regimen was administered at these doses and schedule: prednisone, 0.2 mg/kg p.o. days 1-5; cytoxan, 40 mg/kg, i.v., day 1; doxorubicin 3.3 mg/kg, i.v., day 1; vincristine, 0.5 mg/kg, i.v., day 1. Group size was n=12. For tumor volume measurements, length then width were measured with a digital caliper. The measurements were recorded twice a week once the tumors became visible. Tumor volumes and doubling times were calculated based on the formula, Volume=L×W^2/2. The animals' weights were recorded and evaluated as a per group average.

RL cells = assay: CD40L-induced NF-kB activation, p65 phosphorylation Western blot, RL cells; assay type: cell-based, human
Protocol: (§3) RL and SU-DHL-4 cells were stimulated with CD40L for 0, 10, 30, and 90 minutes and Western blots were performed (FIG. 3). […] The phosphorylation persisted in these cell lines for at least 90 minutes. […] Down-regulating NF-kB activation in a cell may sensitize the cell to CHOP cytotoxicity (Chuang et al. (2002) Biochemical Pharmacology 63:1709-1716; Cheng et al. (2000) Oncogene 19:4936-4940).

soluble CD40 [6] = target: soluble CD40 (Homo sapiens, UniProt P25942); assay: ELISA-type binding assays
human CD40 [7] = target: T1, human CD40 (Homo sapiens, UniProt P25942); assay: Biacore binding affinity assay
Description: As used herein “anti-CD40 antibody” encompasses any antibody that specifically recognizes the CD40 antigen. […] Biacore analysis is known in the art and details are provided in the “BIAapplications handbook”.
as §1
Target sequence in this assay (P25942 21-277): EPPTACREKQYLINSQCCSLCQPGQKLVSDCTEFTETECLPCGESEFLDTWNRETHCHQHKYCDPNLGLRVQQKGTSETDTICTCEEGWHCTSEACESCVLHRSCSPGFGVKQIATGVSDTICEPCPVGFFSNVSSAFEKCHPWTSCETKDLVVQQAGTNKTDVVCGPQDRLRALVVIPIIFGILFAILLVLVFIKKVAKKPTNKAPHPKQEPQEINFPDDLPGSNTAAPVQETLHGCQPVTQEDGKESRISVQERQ

cell-surface CD40 = cell-surface CD40 (Homo sapiens, UniProt P25942); assay: Flow cytometric assays of CD40-ligand binding
SU-DHL-4 cells [8] = assay: CD40L-induced NF-kB activation, p65 phosphorylation Western blot, SU-DHL-4 cells; assay type: cell-based, human
Protocol: as §3

human CD40 [9] = target: T1, human CD40; assay: Biacore
soluble CD40 [10] = target: soluble CD40 (UniProt P25942 21-193, limits assumed); assay: ELISA-type assays
[11] = CD40L in the presence of HCD122

cell-surface CD40, sequence (P25942 21-277): as above
soluble CD40 (UniProt P25942 21-193, limits assumed), sequence (P25942 21-193 limits assumed): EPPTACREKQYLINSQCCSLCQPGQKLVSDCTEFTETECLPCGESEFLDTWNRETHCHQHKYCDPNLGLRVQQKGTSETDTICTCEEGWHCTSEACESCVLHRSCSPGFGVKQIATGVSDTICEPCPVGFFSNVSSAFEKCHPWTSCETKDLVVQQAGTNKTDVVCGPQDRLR
soluble CD40 (Homo sapiens, UniProt P25942), sequence (P25942 21-193 limits assumed): as above

“HCD122: human IgG1 anti-CD40 monoclonal antibody, produced by hybridoma deposited with ATCC as PTA-5543” was tested, and the “Killing of CD40-expressing target cells by ADCC” value [1] was “able to kill”, the “CD40L-induced resistance to CHOP cytotoxicity” value (SU-DHL-4 cells [2]) was “resistance can be overcome” and the “CD40L-induced aggregation of SU-DHL-4 cells” value (SU-DHL-4 cells [3]) was “inhibited”. The “CD40L-induced expression of CD54, CD86 and CD95” value (SU-DHL-4 cell line) was “inhibit”, the “CD40L-induced expression of CD54, CD86 and CD95” value (RL cell line) was “inhibit” and the “Effects on proliferation of B cells from normal human subjects” value [4] was “acts as antagonist anti-CD40 antibody”. For the same molecule, the “Induction of proliferation of human lymphocytes from normal subjects” value [4] was “does not induce strong proliferation”, the “Tumor Growth Inhibition (TGI) on Day 25” value ([5]; antibody 0.1 mg/kg i.p. once a week for 4 weeks) was 28.65% and the “Tumor-growth delay (time to reach tumor size of 500 mm^3)” value ([5]; antibody 0.1 mg/kg i.p. once a week) was 1.5 days. For the same molecule, the “Tumor Growth Inhibition (TGI) on Day 25” value ([5]; antibody 1 mg/kg i.p. once a week for 4 weeks) was 71% and 71.15%, the “Tumor-growth delay (time to reach tumor size of 500 mm^3)” value ([5]; antibody 1 mg/kg i.p. once a week) was 6 days and the “NF-kB activation induced by CD40L” value (RL cells) was “completely blocked”. For the same molecule, the “Phosphorylation of p65 on CD40L stimulation” value (RL cells; [11]) was “greatly inhibited”, the “Binding to soluble CD40” value (soluble CD40 [6]) was “binds soluble CD40” and the Kd (human CD40 [7]) was 0.5 nM. For the same molecule, the “Binding of CD40-ligand to cell-surface CD40” value (cell-surface CD40) was “prevents the binding”, the “Displacement of pre-bound CD40-ligand” value (cell-surface CD40) was “displaces the pre-bound CD40-ligand” and the “NF-kB activation induced by CD40L” value (SU-DHL-4 cells [8]) was “completely blocked”. For the same molecule, the “Phosphorylation of p65 on CD40L stimulation” value (SU-DHL-4 cells [8]; [11]) was “greatly inhibited”.

B1: monoclonal antibody HCD122 (antibody, human IgG1, kappa, V domains shown)
VH: QVQLVESGGGVVQPGRSLRLSCAASGFTFSSYGMHWVRQAPGKGLEWVAVISYEESNRYHADSVKGRFTISRDNSKITLYLQMNSLRTEDTAVYYCARDGGIAAPGPDYWGQGTLVTVSS
VL: DIVMTQSPLSLTVTPGEPASISCRSSQSLLYSNGYNYLDWYLQKPGQSPQVLISLGSNRASGVPDRFSGSGSGTDFTLKISRVEAEDVGVYYCMQARQTPFTFGPGTKVDIRR
notes: Fully human IgG1 kappa antibody from XenoMouse; hybridoma ATCC PTA-5543; also called CHIR-12.12; anti-CD40 antibody
B1 was tested, and the Kd (human CD40 [9]) was 0.5 nM and the binding result (soluble CD40 [10]) was “binds”.
